Experiments:
[1] = system: 19-20 month-old male rats; experiment: Elevated plus-maze, rats fed QBA alone or QBA+DHA; format: in vivo, rat; conditions: QBA 0, DHA 0.07% weight of diet
Experimental: Rats were fed QBA and subjected to an elevated plus-maze. The elevated plus-maze was elevated ˜85 cm above the floor and consisted of two open and two closed arms of the same size (50×10 cm). The closed arms were surrounded by walls 40 cm high, and the arms were constructed of black acrylic slabs that radiated from a central platform (10×10 cm) to form a plus sign. Each rat was placed in the central platform facing one of the open arms, and its behavior was recorded during a 5-min testing period with video capture software. More time spent in the open arms is an indication of reduced anxiety-like state. Rats were tested at 18 months old (N=11-13 per group).
The dose-response characteristics of 10-Hydroxy-2-decenoic acid's (QBA's) in combination with DHA for potential brain health benefits during aging were assessed for mood in 19-20 month-old male rats (N=11-14 per group). Rats were fed QBA alone or QBA+DHA and subjected to an elevated plus-maze.

[2] = Body weight of aged male rats fed QBA and/or DHA (Example 8); format: in vivo, rat; conditions: DHA 0.07% weight of diet
Experimental: Aged male rats were fed 10-Hydroxy-2-decenoic acid (QBA) for approximately […] from 12-months to 20-months of age and the weight of rats was recorded.

[3] = Weight after Barnes maze psychological stress (Example 9); format: in vivo, rat; conditions: for % Change (Weight after Barnes maze): DHA 0.07% weight of diet
Experimental: Aged male rats were fed 10-Hydroxy-2-decenoic acid (QBA) for approximately […] from 12-months to 20-months of age and the weight of rats was recorded (N=11-14 per group). During the last month of QBA feeding animals were subjected to the psychological stress of the Barnes maze.

[4] = Body weight of aged male rats fed QBA and/or DHA (Example 8); format: in vivo, rat; conditions: DHA 0.07% weight of diet; remark: listed apart in the source
[5] = system: RAW264.7 mouse macrophage cell line; experiment: IL-1β levels after LPS stimulation; format: cell-based; conditions: Dexamethasone, concentration not given; LPS 100 ng/mL; 24 h
Experimental: (§1) Cultures of the RAW264.7 mouse macrophage cell line were pre-treated with 10-Hydroxy-2-decenoic acid (QBA) for 1 hour prior to stimulation with lipopolysaccharide (LPS, 100 ng/mL). After 24 hours of incubation, interleukin […] (IL-1β) and tumor necrosis factor-α (TNFα) levels were determined by Luminex technology and cell numbers were measured using Alamar Blue. Results are given as a ratio of cytokine concentration/cell number.

[6] = system: RAW264.7 mouse macrophage cell line; experiment: TNFα levels after LPS stimulation; format: cell-based; conditions: Dexamethasone, concentration not given; LPS 100 ng/mL; 24 h
Experimental: as §1

SMILES: CC/C=C\C/C=C\C/C=C\C/C=C\C/C=C\C/C=C\CCC(=O)O [DHA, all-cis-docosa-4,7,10,13,16,19-hexaenoic acid]
- Time (s) in Open Arm [1]: 32.4 s
- Avg Wt ([2]; study day 0): 552.9 g
- Avg Wt ([2]; study day 4): 568.8 g
- Avg Wt ([2]; study day 11): 579.8 g
- Avg Wt ([2]; study day 18): 592.4 g
- Avg Wt ([2]; study day 25): 594.4 g
- Avg Wt ([2]; study day 32): 600.5 g
- Avg Wt ([2]; study day 39): 605.1 g
- Avg Wt ([2]; study day 46): 607.2 g
- Avg Wt ([2]; study day 53): 610.6 g
- Avg Wt ([2]; study day 67): 616.2 g
- Avg Wt ([2]; study day 74): 617.6 g
- Avg Wt ([2]; study day 81): 619.7 g
- Avg Wt ([2]; study day 88): 623.2 g
- Avg Wt ([2]; study day 95): 624.8 g
- Avg Wt ([2]; study day 102): 629.4 g
- Avg Wt ([2]; study day 109): 632.9 g
- Avg Wt ([2]; study day 116): 636.3 g
- Avg Wt ([2]; study day 123): 631.2 g
- Avg Wt ([2]; study day 137): 633.1 g
- Avg Wt ([2]; study day 151): 634.6 g
- % Change (Weight after Barnes maze) ([3]; behavior stress day 7): −0.76%
- % Change (Weight after Barnes maze) ([3]; behavior stress day 14): −0.57%
- % Change (Weight after Barnes maze) ([3]; behavior stress day 21): −0.88%
- % Change (Weight after Barnes maze) ([3]; behavior stress day 28): −0.56%
- % Change (Weight after Barnes maze) ([3]; behavior stress day 35): −0.23%
- weight loss associated with the psychological stress ([3]; summary of Table 15): did not produce the same results
- Avg Wt ([4]; study day 60): 614.6 g
- Avg Wt ([4]; study day 130): 635.2 g
- Avg Wt ([4]; study day 144): 632.5 g

SMILES: C[C@@H]1C[C@H]2[C@@H]3CCC4=CC(=O)C=C[C@]4(C)[C@@]3(F)[C@@H](O)C[C@]2(C)[C@@]1(O)C(=O)CO [Dexamethasone, reference compound]
- IL-1β (pg/mL)/Cell Numbers [5]: 0.0013 (pg/mL)/Cell Numbers
- TNFα (pg/mL)/Cell Numbers [6]: 0.153 (pg/mL)/Cell Numbers
